Measurements from PubChem BioAssay AID256 (DTP/NCI, 2004).
Several values for one entry are separate records, joined by “and”; a condition that tells them apart may be missing. Identical values can stand only once. Inconclusive results and toxic doses are left out. The calls were made as follows: active = survival T/C of 150% or more; inactive = T/C below 125% in these data. Non-standard residues stand in square brackets, D forms with d. Residues, ends and D or L forms follow the SMILES beside them. ξ: configuration not given here. *: point of attachment. ξE = NC(CCC(=O)O)C(=O)O; Cbz = O=C(OCc1ccccc1)*; OBn = c1ccc(CO*)cc1

Test system: CD2F1 mice, L1210 leukemia ip, survival T/C
Test: NCI In Vivo Anticancer Drug Screen. Data for tumor model L1210 Leukemia (intraperitoneal) in CD2F1 (CDF1) mice
Conditions: higher = longer survival
Procedure, shortened: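 Implant tumor; dose compound or vehicle; measure endpoint in both groups; report treated divided by control.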

[1] = endpoint: mean survival time, dose: 100.0 mg/kg/injection, schedule: Q01DX009 (ip), vehicle: saline with Tween-80
[2] = endpoint: mean survival time, dose: 100.0 mg/kg/injection, schedule: Q04DX003 (ip), vehicle: saline with Tween-80
[3] = endpoint: mean survival time, dose: 200.0 mg/kg/injection, schedule: Q01DX009 (ip), vehicle: saline with Tween-80
[4] = endpoint: mean survival time, dose: 200.0 mg/kg/injection, schedule: Q04DX003 (ip), vehicle: saline with Tween-80
[5] = endpoint: mean survival time, dose: 400.0 mg/kg/injection, schedule: Q01DX009 (ip), vehicle: saline with Tween-80
[6] = endpoint: mean survival time, dose: 400.0 mg/kg/injection, schedule: Q04DX003 (ip), vehicle: saline with Tween-80
[7] = endpoint: mean survival time, dose: 25.0 mg/kg/injection, schedule: Q01DX009 (ip), vehicle: saline
[8] = endpoint: mean survival time, dose: 50.0 mg/kg/injection, schedule: Q01DX009 (ip), vehicle: saline
[9] = endpoint: mean survival time, dose: 100.0 mg/kg/injection, schedule: Q01DX009 (ip), vehicle: saline

Measured: T/C

Clc1ccc(Br)c2c1CCC2
inactive: endpoint: mean survival time, dose: 100.0 mg/kg/injection, schedule: Q04DX003 (ip), vehicle: acetone 101 % of control | endpoint: mean survival time, dose: 200.0 mg/kg/injection, schedule: Q04DX003 (ip), vehicle: acetone 100 % of control

Cc1ccc(NC(=O)Nc2cccc(NC(=O)COc3ccc(Cl)cc3C(=O)O)c2)cc1S(=O)(=O)F
inactive: endpoint: mean survival time, dose: 100.0 mg/kg/injection, schedule: Q01DX001 (ip), vehicle: saline with Tween-80 88 % of control | endpoint: mean survival time, dose: 200.0 mg/kg/injection, schedule: Q01DX001 (ip), vehicle: saline with Tween-80 86 % of control | endpoint: mean survival time, dose: 400.0 mg/kg/injection, schedule: Q01DX001 (ip), vehicle: saline with Tween-80 89 % of control

CNC(=O)C(=O)NC
inactive: [1] 96 % of control | [2] 101 % of control | [3] 98 % of control | [4] 98 % of control | [5] 98 % of control | [6] 101 % of control

CCCCCCSC(=O)NC(C)=O
inactive: [1] 92 % of control | [2] 91 % of control | [3] 94 % of control | [4] 94 % of control | [5] 106 % of control | [6] 94 % of control

CC12CC(C(=O)O)C3(O)CC(C)(C1)CC(C)(C2)C3 (stereo unspecified) (tested in a mixture with another compound)
inactive: endpoint: mean survival time, dose: 12.5 mg/kg/injection, schedule: Q01DX009 (ip), vehicle: Klucel (hydroxypropylcellulose) (HPC) 95 % of control and 107 % of control | endpoint: mean survival time, dose: 25.0 mg/kg/injection, schedule: Q01DX009 (ip), vehicle: Klucel (hydroxypropylcellulose) (HPC) 101 % of control and 109 % of control | endpoint: mean survival time, dose: 50.0 mg/kg/injection, schedule: Q01DX009 (ip), vehicle: Klucel (hydroxypropylcellulose) (HPC) 87 % of control and 107 % of control | endpoint: mean survival time, dose: 100.0 mg/kg/injection, schedule: Q01DX009 (ip), vehicle: Klucel (hydroxypropylcellulose) (HPC) 98 % of control and 110 % of control | endpoint: mean survival time, dose: 200.0 mg/kg/injection, schedule: Q01DX009 (ip), vehicle: Klucel (hydroxypropylcellulose) (HPC) 101 % of control and 104 % of control | endpoint: mean survival time, dose: 400.0 mg/kg/injection, schedule: Q01DX009 (ip), vehicle: Klucel (hydroxypropylcellulose) (HPC) 98 % of control

COc1cc(OC)c(NC(=O)Oc2ccc(C(C)(C)C)cc2Br)cc1Cl
inactive: endpoint: mean survival time, dose: 12.5 mg/kg/injection, schedule: Q01DX009 (ip), vehicle: saline with Tween-80 97 % of control | endpoint: mean survival time, dose: 25.0 mg/kg/injection, schedule: Q01DX009 (ip), vehicle: saline with Tween-80 102 % of control | endpoint: mean survival time, dose: 50.0 mg/kg/injection, schedule: Q01DX009 (ip), vehicle: saline with Tween-80 94 % of control | [1] 93 % of control | [3] 86 % of control

Cc1cc(O)c(N=Nc2ccc(C(=O)O)cc2)cc1C
inactive: endpoint: mean survival time, dose: 12.5 mg/kg/injection, schedule: Q01DX009 (ip), vehicle: saline 106 % of control | endpoint: mean survival time, dose: 12.5 mg/kg/injection, schedule: Q01DX009 (ip), vehicle: suspension in saline 97 % of control | [7] 110 % of control | endpoint: mean survival time, dose: 25.0 mg/kg/injection, schedule: Q01DX009 (ip), vehicle: suspension in saline 101 % of control | [8] 111 % of control | endpoint: mean survival time, dose: 50.0 mg/kg/injection, schedule: Q01DX009 (ip), vehicle: suspension in saline 95 % of control | [9] 94 % of control | endpoint: mean survival time, dose: 100.0 mg/kg/injection, schedule: Q01DX009 (ip), vehicle: suspension in saline 94 % of control | endpoint: mean survival time, dose: 200.0 mg/kg/injection, schedule: Q01DX009 (ip), vehicle: suspension in saline 97 % of control | endpoint: mean survival time, dose: 400.0 mg/kg/injection, schedule: Q01DX009 (ip), vehicle: saline 93 % of control | endpoint: mean survival time, dose: 400.0 mg/kg/injection, schedule: Q01DX009 (ip), vehicle: suspension in saline 101 % of control

O=c1n(-c2ccccc2)c(=O)n2n1C1C=CC2C2CC2/C=C\1 (stereo unspecified)
inactive: endpoint: median survival time, dose: 50.0 mg/kg/injection, schedule: Q04DX002 (ip), vehicle: saline with Tween-80 112 % of control | endpoint: median survival time, dose: 100.0 mg/kg/injection, schedule: Q04DX002 (ip), vehicle: saline with Tween-80 112 % of control | endpoint: median survival time, dose: 200.0 mg/kg/injection, schedule: Q04DX002 (ip), vehicle: saline with Tween-80 87 % of control

Cn1c(=O)c2c(ncn2CCCNCC(O)c2ccc(O)c(O)c2)n(C)c1=O (stereo unspecified)
inactive: endpoint: mean survival time, dose: 12.5 mg/kg/injection, schedule: Q01DX005 (ip), vehicle: water 98 % of control | endpoint: mean survival time, dose: 25.0 mg/kg/injection, schedule: Q01DX005 (ip), vehicle: water 98 % of control | endpoint: mean survival time, dose: 50.0 mg/kg/injection, schedule: Q01DX005 (ip), vehicle: water 94 % of control | endpoint: mean survival time, dose: 100.0 mg/kg/injection, schedule: Q01DX005 (ip), vehicle: water 100 % of control

CCCCOC(=O)c1ccccc1C(=O)O.[Cu+2]
inactive: endpoint: mean survival time, dose: 6.25 mg/kg/injection, schedule: Q01DX001 (ip), vehicle: saline with Tween-80 100 % of control | endpoint: mean survival time, dose: 12.5 mg/kg/injection, schedule: Q01DX001 (ip), vehicle: saline with Tween-80 96 % of control | endpoint: mean survival time, dose: 25.0 mg/kg/injection, schedule: Q01DX001 (ip), vehicle: saline with Tween-80 103 % of control

CCSCCCC(=O)O
inactive: [7] 97 % of control | [8] 93 % of control | [9] 101 % of control | endpoint: mean survival time, dose: 100.0 mg/kg/injection, schedule: Q04DX003 (ip), vehicle: saline sonified 101 % of control

CCCCCCCCCCSS(=O)(=O)O
inactive: endpoint: mean survival time, dose: 25.0 mg/kg/injection, schedule: Q01DX001 (ip), vehicle: other 105 % of control | endpoint: mean survival time, dose: 50.0 mg/kg/injection, schedule: Q01DX001 (ip), vehicle: other 96 % of control | endpoint: mean survival time, dose: 100.0 mg/kg/injection, schedule: Q01DX001 (ip), vehicle: other 96 % of control

O=C(CNC(=O)OCc1ccccc1)NCC(=O)NC(CCC(=O)OCc1ccccc1)C(=O)OCc1ccccc1 (stereo not drawn) (Cbz-Gly-Gly-[ξE](OBn)-OBn)
inactive: endpoint: mean survival time, dose: 100.0 mg/kg/injection, schedule: Q04DX003 (ip), vehicle: other 95 % of control | endpoint: mean survival time, dose: 200.0 mg/kg/injection, schedule: Q04DX003 (ip), vehicle: other 91 % of control | endpoint: mean survival time, dose: 400.0 mg/kg/injection, schedule: Q04DX003 (ip), vehicle: other 95 % of control

COc1ccc2oc3c(ccc[n+]3C)c(=O)c2c1
inactive: endpoint: median survival time, dose: 60.0 mg/kg/injection, schedule: Q01DX005 (ip), vehicle: saline with Tween-80 104 % of control | endpoint: median survival time, dose: 120.0 mg/kg/injection, schedule: Q01DX005 (ip), vehicle: saline with Tween-80 108 % of control | endpoint: median survival time, dose: 240.0 mg/kg/injection, schedule: Q01DX005 (ip), vehicle: saline with Tween-80 122 % of control

CC(C)(CNC1CCCCC1)OC(=O)c1ccc([N+](=O)[O-])cc1
inactive: endpoint: mean survival time, dose: 75.0 mg/kg/injection, schedule: Q01DX001 (ip), vehicle: saline 94 % of control | endpoint: mean survival time, dose: 150.0 mg/kg/injection, schedule: Q01DX001 (ip), vehicle: saline 99 % of control | endpoint: mean survival time, dose: 300.0 mg/kg/injection, schedule: Q01DX001 (ip), vehicle: saline 94 % of control

COc1cc(Cl)ccc1NC(=O)Oc1c(OC)cccc1OC
inactive: [1] 100 % of control | [3] 106 % of control | [5] 103 % of control

Cc1cccc(CN=C(N)CCl)n1
inactive: endpoint: mean survival time, dose: 100.0 mg/kg/injection, schedule: Q04DX002 (ip), vehicle: saline 111 % of control | endpoint: mean survival time, dose: 200.0 mg/kg/injection, schedule: Q04DX002 (ip), vehicle: saline 116 % of control

O=C(Nc1ccccc1)OCCCl
inactive: [2] 100 % of control | [4] 97 % of control | [6] 100 % of control

c1ccc(C(c2ccccc2)c2ccccc2)cc1
inactive: [2] 97 % of control | [4] 98 % of control

CC(C)c1cc(C(C)C)nc(NNc2nc(C(C)C)cc(C(C)C)n2)n1
inactive: [2] 102 % of control | [4] 100 % of control | [6] 100 % of control

O=C1C(Cl)=C(NCC2CCC(CO)CC2)C(=O)c2ccccc21 (stereo unspecified)
inactive: endpoint: mean survival time, dose: 6.25 mg/kg/injection, schedule: Q04DX003 (ip), vehicle: saline with Tween-80 98 % of control | endpoint: mean survival time, dose: 12.5 mg/kg/injection, schedule: Q04DX003 (ip), vehicle: saline with Tween-80 97 % of control | endpoint: mean survival time, dose: 25.0 mg/kg/injection, schedule: Q04DX003 (ip), vehicle: saline with Tween-80 95 % of control and 98 % of control
